# Laboratory results: patent publication US8557847B2, “Synergistic modulation of FLT3 kinase using a FLT3 inhibitor and a farnesyl transferase inhibitor” (Janssen Pharmaceutica, N.V., priority 2005, dated 2013)
# Structures can show the parent of a compound that is named as a salt. Where two headings read alike, the source gives them in different places.
# Tests used:
# [1] = tested on: Baf3-FLT3 cells stimulated with FLT ligand; assay: 72-hour cell proliferation assay, single agents and FTI/FLT3 inhibitor combinations, Baf3-FLT3; format: cell-based, murine; conditions: with single sub-IC50 dose of FLT3 inhibitor Compound A (100 nM)
# Experimental: (§1) Dose responses for the individual compounds alone were determined for each cell line using a standard 72-hour cell proliferation assay (see FIGS. 6.1-6.8). The standard chemotherapeutic agent Cytarabine was used as a control cytotoxic agent in all experiments. […] The FLT3 inhibitors, Compounds A, B, C, D, E, F G and H, individually have good potency (sub-micromolar) for the inhibition of FLT3 driven proliferation (compared to the first line cytotoxic agent Cytarabine and Tipifarnib) in cells that depend on FLT3 for growth. Each of these chemically distinct compounds alone has potential for the treatment of disorders related to FLT3, such as FLT3 positive AML. […]
# (§2) To statistically evaluate the synergy of a FLT3 inhibitor and an FTI in FLT3 dependent cell lines, dosing combinations were evaluated by the method of Chou and Talalay. See Chou T C, Talalay P. (1984) “Quantitative analysis of dose-effect relationships: the combined effects of multiple drugs or enzyme inhibitors.” Adv Enzyme Regul. […] Using this method, multiple FTI and FLT3 combinations were evaluated. […]
# (§3) Cell proliferation assay for MV4-11, Baf3-ITD, Baf3-FLT3 and THP-1 cells. […] Total cell growth is quantified as the difference in luminescent counts (relative light units, RLU) of cell number at Day 0 compared to total cell number at Day 3 (72 hours of growth and/or compound treatment). […]
# [2] = target: T1, isolated kinase domain of the human FLT3 receptor (a.a. 571-993) (Homo sapiens, UniProt P36888); assay: FLT3 fluorescence polarization kinase assay; format: biochemical; conditions: 150 uM ATP; uncertainty ±10%; read-out: Flt-3 IC50
# T1 construct: human FLT3 receptor (a.a. 571-993)
# T1 sequence (P36888 571-993): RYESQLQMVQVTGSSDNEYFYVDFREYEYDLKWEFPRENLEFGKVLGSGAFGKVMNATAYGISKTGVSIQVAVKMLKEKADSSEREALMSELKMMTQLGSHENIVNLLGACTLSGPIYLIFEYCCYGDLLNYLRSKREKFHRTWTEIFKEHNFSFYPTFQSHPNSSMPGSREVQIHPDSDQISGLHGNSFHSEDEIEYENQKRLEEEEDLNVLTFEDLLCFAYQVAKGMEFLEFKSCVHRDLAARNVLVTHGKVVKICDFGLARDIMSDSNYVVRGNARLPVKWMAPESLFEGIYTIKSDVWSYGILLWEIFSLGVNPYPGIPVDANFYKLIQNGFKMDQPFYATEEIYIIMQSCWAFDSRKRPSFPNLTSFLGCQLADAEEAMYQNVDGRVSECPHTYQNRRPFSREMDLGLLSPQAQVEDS
# Description: The FLT3 FP assay utilizes the fluorescein-labeled phosphopeptide and the anti-phosphotyrosine antibody included in the Panvera Phospho-Tyrosine Kinase Kit (Green) supplied by Invitrogen. When FLT3 phosphorylates polyGlu4Tyr, the fluorescein-labeled phosphopeptide is displaced from the anti-phosphotyrosine antibody by the phosphorylated poly Glu4Tyr, thus decreasing the FP value. […] The kinase reaction is stopped with the addition of EDTA. The fluorescein-labeled phosphopeptide and the anti-phosphotyrosine antibody are added and incubated for 30 minutes at room temperature.
# Data points are an average of triplicate samples. Inhibition and IC50 data analysis was done with GraphPad Prism using a non-linear regression fit with a multiparamater, sigmoidal dose-response (variable slope) equation.
# [3] = target: T2, wild-type FLT3 phosphorylation in Baf3 FLT3 cells (Homo sapiens, UniProt P36888); assay: Cell-based FLT3 receptor ELISA; conditions: uncertainty ±20%
# T2 construct: host or cells: Baf3 (murine B cell lymphoma line)
# T2 sequence (P36888 27-993): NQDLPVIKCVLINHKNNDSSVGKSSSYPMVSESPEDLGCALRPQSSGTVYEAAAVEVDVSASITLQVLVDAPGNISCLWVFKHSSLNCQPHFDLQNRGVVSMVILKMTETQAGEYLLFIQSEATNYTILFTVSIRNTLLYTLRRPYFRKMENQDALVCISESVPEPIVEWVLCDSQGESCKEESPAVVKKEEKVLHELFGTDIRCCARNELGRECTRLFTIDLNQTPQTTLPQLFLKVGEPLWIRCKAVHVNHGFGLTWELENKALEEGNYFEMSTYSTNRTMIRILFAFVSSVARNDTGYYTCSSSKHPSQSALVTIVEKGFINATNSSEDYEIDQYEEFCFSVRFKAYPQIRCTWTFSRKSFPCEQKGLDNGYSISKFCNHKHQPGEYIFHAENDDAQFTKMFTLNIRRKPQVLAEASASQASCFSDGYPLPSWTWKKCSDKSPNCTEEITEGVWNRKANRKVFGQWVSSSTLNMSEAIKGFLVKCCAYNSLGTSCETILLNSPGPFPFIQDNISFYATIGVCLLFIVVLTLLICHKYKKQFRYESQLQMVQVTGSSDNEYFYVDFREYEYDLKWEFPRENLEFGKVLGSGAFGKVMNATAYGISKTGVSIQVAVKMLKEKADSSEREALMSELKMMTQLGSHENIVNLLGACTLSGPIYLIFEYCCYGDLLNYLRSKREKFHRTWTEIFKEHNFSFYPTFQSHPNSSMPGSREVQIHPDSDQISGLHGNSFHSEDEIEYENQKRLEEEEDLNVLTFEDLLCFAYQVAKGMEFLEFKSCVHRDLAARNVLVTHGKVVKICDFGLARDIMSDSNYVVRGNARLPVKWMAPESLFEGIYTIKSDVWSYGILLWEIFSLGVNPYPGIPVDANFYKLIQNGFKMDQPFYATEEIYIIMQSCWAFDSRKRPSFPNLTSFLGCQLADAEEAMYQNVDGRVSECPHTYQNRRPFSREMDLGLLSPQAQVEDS
# Description: Data points are an average of triplicate samples. […] Leukemia.
# MV4-11 AML cells = assay: 72-hour cell proliferation assay, single agents and FTI/FLT3 inhibitor combinations, MV4-11; format: cell-based; conditions: Homo sapiens, IC50 of the FLT3 inhibitor, alone or within the labelled combination, average of three experiments
# Experimental: as §1, §2, §3
# MV4-11 tumor xenografts = conditions: for inhibition of mean tumor volume compared to vehicle-treated group: Day 11
# [4] = target: T3, FLT3 phosphorylation in MV4-11 tumors (Homo sapiens, UniProt P36888, INS600HVDFREYEYD); assay: FLT3 phosphorylation in MV4-11 tumors, Compound D; format: in vivo, nude mice; conditions: tumors harvested 6 hours later
# T3 construct: host or cells: MV4-11 human AML cells (in culture, or as xenograft tumors in nude mice)
# T3 sequence (P36888 with tags, fused parts or gaps INS600HVDFREYEYD): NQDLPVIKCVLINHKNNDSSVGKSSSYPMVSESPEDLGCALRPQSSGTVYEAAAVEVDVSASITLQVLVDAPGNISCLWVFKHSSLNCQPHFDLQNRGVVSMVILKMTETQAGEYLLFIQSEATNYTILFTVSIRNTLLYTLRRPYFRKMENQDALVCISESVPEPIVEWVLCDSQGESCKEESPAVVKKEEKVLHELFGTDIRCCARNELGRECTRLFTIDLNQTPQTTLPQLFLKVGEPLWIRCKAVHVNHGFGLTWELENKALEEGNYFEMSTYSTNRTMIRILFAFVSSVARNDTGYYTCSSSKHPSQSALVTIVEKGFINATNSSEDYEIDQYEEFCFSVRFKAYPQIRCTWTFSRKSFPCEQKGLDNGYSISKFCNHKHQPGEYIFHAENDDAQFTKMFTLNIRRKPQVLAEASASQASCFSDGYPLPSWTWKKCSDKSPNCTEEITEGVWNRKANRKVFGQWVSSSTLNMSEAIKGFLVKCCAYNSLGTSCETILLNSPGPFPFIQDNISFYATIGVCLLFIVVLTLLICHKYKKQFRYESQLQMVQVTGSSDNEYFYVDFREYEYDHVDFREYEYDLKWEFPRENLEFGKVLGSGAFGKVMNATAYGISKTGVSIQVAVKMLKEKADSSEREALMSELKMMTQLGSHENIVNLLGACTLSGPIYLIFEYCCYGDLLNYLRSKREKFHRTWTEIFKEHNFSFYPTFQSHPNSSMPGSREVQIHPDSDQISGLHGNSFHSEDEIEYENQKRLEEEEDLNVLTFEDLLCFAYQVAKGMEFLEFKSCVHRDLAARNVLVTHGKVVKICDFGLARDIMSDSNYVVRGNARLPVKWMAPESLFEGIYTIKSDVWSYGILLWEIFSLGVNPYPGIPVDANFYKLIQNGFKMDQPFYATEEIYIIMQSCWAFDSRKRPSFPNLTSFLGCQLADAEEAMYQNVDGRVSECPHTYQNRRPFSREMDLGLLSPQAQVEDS
# Experimental: Tumors were harvested 6 hours later and snap frozen for assessment of FLT3 phosphorylation by western blots.
# Harvested tumors were frozen and processed for immunoblot analysis of FLT3 phosphorylation in the following manner: 200 mg of tumor tissue was dounce homogenized in lysis buffer (50 mM Hepes, 150 mM NaCl, 10% Glycerol, 1% Triton —X-100, 10 mM NaF, 1 mM EDTA, 1.5 mM MgCl2, 10 mM NaPyrophosphate) supplemented with phosphatase (Sigma Cat# P2850) and protease inhibitors (Sigma Cat #P8340). Insoluble debris was removed by centrifugation at 1000×g for 5 minutes at 4° C.
# Immunoprecipitated FLT3 from tumor lysates were then washed four times with lysis buffer and separated by SDS-PAGE. […] Blots were then stripped and reprobed with anti-FLT3 antibody for normalization of phosphorylation signals.
# MV-4-11 tumor xenografts = assay: MV-4-11 tumor xenografts, FLT3 inhibitor Compound D administered with Tipifarnib; format: in vivo, nude mice; conditions: Compound D 25 mg/kg bid oral, Day 16
# Description: The starting mean tumor volume for each treatment group was approximately 250 mm3.
# Dosing was continued for sixteen consecutive days.
compound,measurement,setting,value
"Cn1cncc1[C@@](N)(c1ccc(Cl)cc1)c1ccc2c(c1)c(-c1cccc(Cl)c1)cc(=O)n2C (single isomer, unassigned) [Tipifarnib, reference compound]",increase in potency of Tipifarnib,[1],more than 3 fold
"N#Cc1c[nH]c(C(=O)Nc2ccc(C3CCNCC3)cc2C2=CCCCC2)n1 [Compound 14, 4-Cyano-1H-imidazole-2-carboxylic acid (2-cyclohex-1-enyl-4-piperidin-4-yl-phenyl)-amide trifluoroacetic acid salt]",IC50,[2],32 nM
same,IC50,[3],770 nM
"CN(C)CC(=O)N1CCC(c2ccc(NC(=O)c3nc(C#N)c[nH]3)c(C3=CCCCC3)c2)CC1 [Compound 38, 4-Cyano-1H-imidazole-2-carboxylic acid {2-cyclohex-1-enyl-4-[1-(2-dimethylamino-acetyl)-piperidin-4-yl]-phenyl}-amide]",IC50,MV4-11 AML cells,13.8 nM
same,tumor growth compared to vehicle-treated control group,MV4-11 tumor xenografts; 10 mg/kg b.i.d. oral,no significant growth delay
same,final tumor weight,MV4-11 tumor xenografts; 10 mg/kg dose,no significant decrease
same,"tumor regression, decrease versus starting mean tumor volume on Day 1",MV4-11 tumor xenografts; 50 mg/kg b.i.d. oral,98%
same,inhibition of mean tumor volume compared to vehicle-treated group,MV4-11 tumor xenografts; 50 mg/kg b.i.d. oral,~100%
same,final tumor weight,MV4-11 tumor xenografts; 50 mg/kg dose,no measurable tumor mass detectable
same,"tumor regression, decrease versus starting mean tumor volume on Day 1",MV4-11 tumor xenografts; 100 mg/kg b.i.d. oral,93%
same,inhibition of mean tumor volume compared to vehicle-treated group,MV4-11 tumor xenografts; 100 mg/kg b.i.d. oral,~100%
same,"mice with palpable, measurable tumor on study day 34","MV4-11 tumor xenografts; 100 mg/kg, dosing stopped on Day 12, tumor allowed to re-grow",6/12
same,body weight compared to starting body weight,MV4-11 tumor xenografts; across all dose groups,no significant loss of body weight
same,level of FLT3 phosphorylation in MV4-11 tumors,[4]; single dose 10 mg/kg po,partial reduction
same,level of FLT3 phosphorylation in MV4-11 tumors,[4]; single dose 100 mg/kg po,biologically significant reduction
same,inhibition of tumor volume compared to vehicle-treated control group,MV-4-11 tumor xenografts,76%
